Starred links: 1 amine or outer side, 2 acyl side, 3 side chain; linkers in the order of their positions; H or OH if unused. Non-standard residues stand in square brackets, D forms with d. Residues, ends and D or L forms follow the SMILES beside them. X1 = O=C(CCc1ccccc1-c1cccc(CCN[*:1])c1)[*:2]; Orn = NCCC[C@H](N)C(=O)O
Assays:
[1] = Amide proton/deuterium exchange studies by NMR; format: physicochemical; conditions: for rates of amide proton/deuterium exchange of the Leu and Val residues flanking 1 relative to the remaining residues: peptide A 3.0-3.3 mM, pH 3.4-3.6, peptide D 2.5-2.9 mM, pH 4.1-5.1
Procedure: Information concerning the hydrogen-bonding network within a peptide containing residue 1A in aqueous solution was obtained from amide exchange studies of peptide A (3.0-3.3 mM, pH 3.4-3.6) and peptide D (2.5-2.9 mM, pH 4.1-5.1) where peptides A and D appear to be unstructured by far-UV CD.
Amide exchange studies at pH 3.2 were used to examine the hydrogen-bonding properties of peptide G which is expected to be partially folded on the basis of the studies discussed above.

[2] = Far-UV circular dichroism studies of peptide folding (random coil vs β-sheet); format: physicochemical
Procedure: Heptapeptide A has an -amino acid sequence homologous to a 4-(2-aminoethyl)-6-dibenzofuranpropionic acid-based heptapeptide studied previously, allowing comparsion of the efficacy of the biphenyl- and dibenzofuran-based amino acids as nucleators in a momologous α-aminoacid sequence. Peptide B, having a Phe in place of Leu-3, was prepared to test the feasibility of using an aromatic-aromatic interaction to stabilize the hydrophobic cluster and facilitate β-sheet folding. In peptide C, ornithine-2 was replaced with Glu to probe the effect of an addition long-range residue-residue electrostatic interaction (salt bridge) on β-sheet stability in the context of a heptapeptide.
The high charge density on peptides D and E should prevent the favorable strand-strand interactions required for sheet formation at low pH. The removal of two or more of the charges on the Lys ε-ammonium groups effected by increasing the pH is expected to facilitate intramolecular folding followed by self-assembly. A leucine was employed as one of the flanking residues in these peptides instead of valine because the increased side chain flexibility should maximize packing interactions required for hydrophobic cluster formation. […] Peptide E was identical to peptide D except that it incorporated residue 2A in place of residue 1A. […] Peptide F was prepared to probe the importance of hydrophobic cluster formation in β-sheet folding mediated by residue 1A. The flanking hydrophobic residues in peptide D were replaced with hydrophilic lysine residues in peptide F while maintaining a highly momologous amino acid composition and an amphiphilic periodicity of 2A.

[3] = Analytical equilibrium ultracentrifugation (solution molecular weight, quaternary structure)

Row | Compound | rates of amide proton/deuterium exchange of the Leu and Val residues flanking 1 relative to the remaining residues [1] | association state by concentration dependent far-UV CD ([2]; 0.015-0.4 mM, pH 7, mean residue ellipticity at 225 nm constant) | pH dependence of far-UV CD spectra ([2]; 25° C.) | structure by far-UV CD ([2]; 25° C.) | aggregation upon heating ([2]; upon heating) | change of structure upon heating (far-UV CD) ([2]; upon heating) | rates of amide proton exchange of Leu-6, Val-8, Val-4 and Val-10 relative to the remaining residues ([1]; pH 3.2) | observed solution molecular weight (expected monomer 1644) ([3]; 0.11 mM, pH 6.8) | association state by analytical equilibrium ultracentrifugation ([3]; within the concentration and pH ranges studied)
1 | CC(C)C[C@H](NC(=O)[C@H](CCCN)NC(=O)[C@@H](NC(=O)CCc1ccccc1-c1cccc(CCNC(=O)[C@H](CC(C)C)NC(=O)[C@H](CCCN)NC(=O)[C@@H](N)C(C)C)c1)C(C)C)C(N)=O [A, Val Orn Leu 1A Val Orn Leu] (H-V[Orn]L[X1]V[Orn]L-NH2) | at least an order of magnitude slower |  |  |  |  |  |  |  | 
2 | Lys Val N--Me--Leu Val Lys Leu 1A Val Lys Val N--Me--Leu Val Lys [Peptide G] |  | monomeric | little dependence on pH | both random coil and β-sheet structure | does not aggregate | increase in β-sheet structure | significantly slower | 1600±80 | monomeric
3 | CC(C)C[C@H](NC(=O)[C@H](CCCCN)NC(=O)[C@@H](NC(=O)[C@H](CCCCN)NC(=O)[C@@H](NC(=O)[C@@H](N)CCCCN)C(C)C)C(C)C)C(=O)NCCc1cccc(-c2ccccc2CCC(=O)N[C@H](C(=O)N[C@@H](CCCCN)C(=O)N[C@H](C(=O)N[C@@H](CCCCN)C(=O)N[C@H](C(=O)N[C@@H](CCCCN)C(N)=O)C(C)C)C(C)C)C(C)C)c1 [Peptide D, Lys Val Lys Val Lys Leu 1A Val Lys Val Lys Val Lys] (H-KVKVKL[X1]VKVKVK-NH2) | at least an order of magnitude slower |  |  |  |  |  |  |  | 
